Values of other authors, collected in patent publication US6713027B2, “Ozonator for sterilizing, decontaminating, disinfecting, and/or sanitizing surgical instruments” (Electroclave, priority 2001, dated 2004).

System: pathogenic bacteria and viruses
Conditions: in water; compared with chlorine

O=[O+][O-] [O3, ozone]
rate of eliminating pathogenic bacteria and viruses from water relative to Cl (chlorine): 3,125 times
